Data reported in patent US9125915B2, “Antitumor agent” (Mitsubishi Tanabe Pharma Corporation, priority 2007, dated 2015).
Where two headings read alike, the source gives them in different places.

Tests used:
MV4-11 = experiment: Growth suppressive activity test against cancer cells (WST-8), MV4-11; assay type: cell-based, human
Method: (§1) Using RPMI 1640 medium (manufactured by SIGMA) supplemented with 10% fetal bovine serum, human promyelocytic leukemia-derived cell line HL-60, human acute lymphoblastic leukemia-derived cell line MOLT4, human Burkitt's lymphoma-derived cell line Daudi, and human multiple myeloma-derived cell line RPMI-8226 were respectively cultured at 37° C., 5% CO2. In addition, using ISKOV medium (manufactured by SIGMA) supplemented with 10% fetal bovine serum, human chronic myeloid leukemia-derived cell line MV4-11 was cultured at 37° C., 5% CO2. Moreover, using DMEM/F-12 medium (manufactured by SIGMA) supplemented with 10% fetal bovine serum, human lung cancer cell-derived cell line EBC-1, human hepatocellular cancer-derived cell line Kim-1, human colorectal cancer-derived cell line HCT-116, human prostate cancer-derived cell line PC-3, human ovarian cancer-derived cell line A2780, and human osteosarcoma-derived cell line Saos2 were respectively cultured at 37° C., 5% CO2. These cells were plated on a 96 well plate, and cultured for 1 day. Thereto was added a compound diluted with the medium to a final concentration of 0.0003-10 μm (final DMSO concentration, 0.4%). After culture for 3 more days, WST-8 (0.16 mg/mL) was added to the culture medium and the cells were cultured for 2 hr. The absorbance at 650 nm was subtracted from the absorbance at 450 nm. The growth suppressive activity was shown by a decrease rate of the absorbance of the compound addition group to that of the compound non-addition group, and GI50 value was determined from a dose-reaction curve plotting a decrease rate of the absorbance obtained by changing the compound concentration and the compound concentrations.

BRD4 = BRD4 (Homo sapiens (Human), UniProt O60885); experiment: Binding inhibitory test of acetylated histone H4 and BRD4 (TR-FRET); details: CHO cell lysate with Flag-BRD4, biotin-labeled acetylated histone H4 peptide
Method: An expression vector containing cDNA of BRD2, 3 and 4 added with Flag-tag was transfected to CHO cell, and a cell lysate was prepared 24 hr later. Binding of acetylated histone H4 and BRD was confirmed by a Time Resolved Fluorescence Resonance Energy Transfer (TR-FRET) method. To a 384-well white plate (manufactured by Coaster) were added 50 nmol/L biotin-labeled acetylated histone H4 peptide (manufactured by Upstate) and a serially diluted test compound.

PC-3 = experiment: Growth suppressive activity test against cancer cells (WST-8), PC-3; assay type: cell-based; details: Homo sapiens, 72 h, PC-3, prostate cancer, 3 days culture, read-out: cell proliferation suppressive activity GI50
Method: as §1, with “These cells were plated on a 96 well plate, and cultured for 1 day. Thereto was added a compound diluted with the medium to a final concentration of 0.0003-10 μm (final DMSO concentration, 0.4%). After culture for 3 more days, WST-8 (0.16 mg/mL) was added to the culture medium and the cells were cultured for 2 hr.” left out

Saos2 = experiment: Growth suppressive activity test against cancer cells (WST-8), Saos2; assay type: cell-based; details: Homo sapiens, SAOS-2, 72 h, Saos2, osteosarcoma, 3 days culture, read-out: cell proliferation suppressive activity GI50
Method: as §1, with “These cells were plated on a 96 well plate, and cultured for 1 day. Thereto was added a compound diluted with the medium to a final concentration of 0.0003-10 μm (final DMSO concentration, 0.4%). After culture for 3 more days, WST-8 (0.16 mg/mL) was added to the culture medium and the cells were cultured for 2 hr.” left out

Kim-1 = experiment: Growth suppressive activity test against cancer cells (WST-8), Kim-1; assay type: cell-based; details: Homo sapiens, 72 h, Kim-1, hepatocellular cancer, 3 days culture, read-out: cell proliferation suppressive activity GI50
Method: as §1, with “These cells were plated on a 96 well plate, and cultured for 1 day. Thereto was added a compound diluted with the medium to a final concentration of 0.0003-10 μm (final DMSO concentration, 0.4%). After culture for 3 more days, WST-8 (0.16 mg/mL) was added to the culture medium and the cells were cultured for 2 hr.” left out

MOLT-4 = experiment: Growth suppressive activity test against cancer cells (WST-8), MOLT-4; assay type: cell-based; details: Homo sapiens, 72 h, MOLT-4, acute lymphoblastic leukemia, 3 days culture, read-out: cell proliferation suppressive activity GI50
Method: as §1, with “These cells were plated on a 96 well plate, and cultured for 1 day. Thereto was added a compound diluted with the medium to a final concentration of 0.0003-10 μm (final DMSO concentration, 0.4%). After culture for 3 more days, WST-8 (0.16 mg/mL) was added to the culture medium and the cells were cultured for 2 hr.” left out

HCT-116 = experiment: Growth suppressive activity test against cancer cells (WST-8), HCT-116; assay type: cell-based; details: Homo sapiens, 72 h, HCT-116, colorectal cancer, 3 days culture, read-out: cell proliferation suppressive activity GI50
Method: as §1, with “These cells were plated on a 96 well plate, and cultured for 1 day. Thereto was added a compound diluted with the medium to a final concentration of 0.0003-10 μm (final DMSO concentration, 0.4%). After culture for 3 more days, WST-8 (0.16 mg/mL) was added to the culture medium and the cells were cultured for 2 hr.” left out

EBC-1 = experiment: Growth suppressive activity test against cancer cells (WST-8), EBC-1; assay type: cell-based; details: Homo sapiens, 72 h, EBC-1, non-small cell lung cancer, 3 days culture, read-out: cell proliferation suppressive activity GI50
Method: as §1, with “These cells were plated on a 96 well plate, and cultured for 1 day. Thereto was added a compound diluted with the medium to a final concentration of 0.0003-10 μm (final DMSO concentration, 0.4%). After culture for 3 more days, WST-8 (0.16 mg/mL) was added to the culture medium and the cells were cultured for 2 hr.” left out

RPMI-8226 = experiment: Growth suppressive activity test against cancer cells (WST-8), RPMI-8226; assay type: cell-based; details: Homo sapiens, 72 h, RPMI-8226, multiple myeloma, 3 days culture, read-out: cell proliferation suppressive activity GI50
Method: as §1, with “These cells were plated on a 96 well plate, and cultured for 1 day. Thereto was added a compound diluted with the medium to a final concentration of 0.0003-10 μm (final DMSO concentration, 0.4%). After culture for 3 more days, WST-8 (0.16 mg/mL) was added to the culture medium and the cells were cultured for 2 hr.” left out

Daudi = experiment: Growth suppressive activity test against cancer cells (WST-8), Daudi; assay type: cell-based; details: Homo sapiens, 72 h, Burkitt's lymphoma, 3 days culture, read-out: cell proliferation suppressive activity GI50
Method: as §1, with “These cells were plated on a 96 well plate, and cultured for 1 day. Thereto was added a compound diluted with the medium to a final concentration of 0.0003-10 μm (final DMSO concentration, 0.4%). After culture for 3 more days, WST-8 (0.16 mg/mL) was added to the culture medium and the cells were cultured for 2 hr.” left out

A-2780 = experiment: Growth suppressive activity test against cancer cells (WST-8), A-2780; assay type: cell-based; details: Homo sapiens, A2780, 72 h, A-2780, ovarian cancer, 3 days culture, read-out: cell proliferation suppressive activity GI50
Method: as §1, with “These cells were plated on a 96 well plate, and cultured for 1 day. Thereto was added a compound diluted with the medium to a final concentration of 0.0003-10 μm (final DMSO concentration, 0.4%). After culture for 3 more days, WST-8 (0.16 mg/mL) was added to the culture medium and the cells were cultured for 2 hr.” left out

HL-60 = experiment: Growth suppressive activity test against cancer cells (WST-8), HL-60; assay type: cell-based; details: Homo sapiens, 72 h, HL-60, promyelocytic leukemia, 3 days culture, read-out: cell proliferation suppressive activity GI50
Method: as §1, with “These cells were plated on a 96 well plate, and cultured for 1 day. Thereto was added a compound diluted with the medium to a final concentration of 0.0003-10 μm (final DMSO concentration, 0.4%). After culture for 3 more days, WST-8 (0.16 mg/mL) was added to the culture medium and the cells were cultured for 2 hr.” left out

[1] = MV4-11, 3 days culture, read-out: growth suppressive activity on MV4-11 GI50
[2] = Homo sapiens, 72 h, MV4-11, chronic myeloid leukemia, 3 days culture, read-out: cell proliferation suppressive activity GI50
[3] = Homo sapiens, 72 h, MV4-11, 3 days culture, read-out: growth suppressive activity on MV4-11 GI50

| SMILES | GI50 (MV4-11; [1]) [nM] | IC50 (BRD4) [nM] | other results |
| --- | --- | --- | --- |
| Cc1sc2c(c1C)C(c1ccc(Cl)cc1)=NC(CC(=O)Nc1ccc(N)cc1)c1nnc(C)n1-2 (stereo not drawn) [compound 15] | 34 | 120 |  |
| CNC(=O)CC1N=C(c2ccc(Cl)cc2)c2c(sc(C)c2C)-n2c(C)nnc21 (stereo not drawn) [compound 13] | 22 | 17.3 |  |
| COC(=O)C[C@@H]1N=C(c2ccc(-c3ccc(OC)cc3)cc2)c2c(sc(CO)c2C)-n2c(C)nnc21 [compound 7] | 55 | 113 |  |
| CCOC(=O)C[C@@H]1N=C(c2ccc(N(C)c3ccc(F)cc3)cc2)c2c(sc(C)c2C)-n2c(C)nnc21 [compound 11] | 95 | 225 |  |
| COC(=O)C[C@@H]1N=C(c2ccc(Nc3c(F)cc(F)cc3F)cc2)c2c(sc(CO)c2C)-n2c(C)nnc21 [compound 4] | 95 | 77.2 |  |
| Cc1sc2c(c1C)C(c1ccc(Cl)cc1)=NC(CC(=O)Nc1cccnc1)c1nnc(C)n1-2 (stereo not drawn) [compound 12] | 30 | 108 |  |
| COC(=O)C[C@@H]1N=C(c2ccc(Cl)cc2)c2c(sc(Cl)c2C)-n2c(C)nnc21 [compound 5] | 73 | 54.2 |  |
| Cc1sc2c(c1C)C(c1ccc(Cl)cc1)=N[C@@H](CC(=O)Nc1ccc(O)cc1)c1nnc(C)n1-2 [Compound 1, (S)-2-[4-(4-chlorophenyl)-2,3,9-trimethyl-6H-thieno[3,2-f][1,2,4]triazolo[4,3-a][1,4]diazepin-6-yl]-N-(4-hydroxyphenyl)acetamide] |  |  | GI50 (PC-3): 1030 nM; GI50 (Saos2): 481 nM; GI50 (Kim-1): 569 nM; GI50 (MOLT-4): 80 nM; GI50 (HCT-116): 563 nM; GI50 (EBC-1): 491 nM; GI50 (RPMI-8226): 130 nM; GI50 (MV4-11; [2]): 60.7 nM; GI50 (Daudi): 611 nM; GI50 (A-2780): 619 nM; GI50 (HL-60): 149 nM |
| COC(=O)C[C@@H]1N=C(c2ccc(Nc3ccccc3)cc2)c2c(sc(C)c2C)-n2c(C)nnc21 [compound 8, methyl (S)-{2,3,9-trimethyl-4-(4-phenylaminophenyl)-6H-thieno[3,2-f][1,2,4]triazolo[4,3-a][1,4]diazepin-6-yl}acetate] |  |  | GI50 (MV4-11; [3]): 9 nM |
| Cc1sc2c(c1C)C(c1ccc(Cl)cc1)=NC(CC(=O)NCCO)c1nnc(C)n1-2 (stereo not drawn) [compound 14] | 42 |  |  |
| CCOC(=O)C[C@@H]1N=C(c2ccc(Nc3cccnc3)cc2)c2c(sc(C)c2C)-n2c(C)nnc21 [compound 3] | 20 | 54.9 |  |
| COc1ncccc1NC(=O)C[C@@H]1N=C(c2ccc(Cl)cc2)c2c(sc(C)c2C)-n2c(C)nnc21 [compound 18] | 48 | 147 |  |
| COC(=O)C[C@@H]1N=C(c2ccc(NCc3ccccc3)cc2)c2c(sc(C)c2C)-n2c(C)nnc21 [compound 9] | 39 | 73.6 |  |
| COC(=O)C[C@@H]1N=C(c2ccc(Cl)cc2)c2c(sc(C)c2C)-n2c(C)nnc21 [compound 6] | 26 | 18.2 |  |
| CONC(=O)C[C@@H]1N=C(c2ccc(Cl)cc2)c2c(sc(C)c2C)-n2c(C)nnc21 [compound 17] | 14 | 12.8 |  |
| COc1ccc(NC(=O)C[C@@H]2N=C(c3ccc(Cl)cc3)c3c(sc(C)c3C)-n3c(C)nnc32)cn1 [compound 16] | 28 | 116 |  |
| COC(=O)C[C@@H]1N=C(c2ccc(-c3cccc(C#N)c3)cc2)c2c(sc(C)c2C)-n2c(C)nnc21 [Compound 2, methyl (S)-{4-(3′-cyanobiphenyl-4-yl)-2,3,9-trimethyl-6H-thieno[3,2-f][1,2,4]triazolo[4,3-a][1,4]diazepin-6-yl}acetate] |  | 121 | GI50 (PC-3): 199 nM; GI50 (Saos2): 269 nM; GI50 (Kim-1): 104 nM; GI50 (MOLT-4): 106 nM; GI50 (HCT-116): 356 nM; GI50 (EBC-1): 207 nM; GI50 (RPMI-8226): 69.4 nM; GI50 (MV4-11; [3]): 19 nM; GI50 (MV4-11; [2]): 19 nM; GI50 (Daudi): 67.4 nM; GI50 (A-2780): 130 nM; GI50 (HL-60): 7 nM |
| COC(=O)C[C@@H]1N=C(c2ccc(NC(=O)CCc3ccccc3)cc2)c2c(sc(C)c2C)-n2c(C)nnc21 [compound 10, methyl (S)-{2,3,9-trimethyl-4-[4-(3-phenylpropionylamino)phenyl]-6H-thieno[3,2-f][1,2,4]triazolo[4,3-a][1,4]diazepin-6-yl}acetate] |  | 47.1 | GI50 (MV4-11; [3]): 7 nM |
